# Assay results: patent US10294202B2, “Pyrrolidinones as herbicides” (FMC Corporation, priority 2013, dated 2019)
# Key:
# barnyardgrass [1] = test: Test B flooded paddy test; assay type: in vivo, Echinochloa crus-galli; settings: 500 g ai/ha, Flood; scale of 0 to 100 where 0 is no effect and 100 is complete control
# Summary of the method: (§1)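 In-water application to pots flooded 3 cm deep, plants at 2-leaf stage. Held in greenhouse 13–15 days at constant flood depth. Scored 0–100 by eye against controls.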
# rice = test: Test B flooded paddy test; assay type: in vivo, Oryza sativa; settings: 500 g ai/ha, Flood; scale of 0 to 100 where 0 is no effect and 100 is complete control
# Summary of the method: as §1
# galium = test: Test A postemergence herbicide test; assay type: in vivo, Galium aparine
# Summary of the method: (§2)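 Blackgrass and galium grown in pots of loam soil–sand blend, treated postemergence at 2–10 cm height, one- to two-leaf stage. Plants kept in greenhouse ~10 days, then visually rated for injury against untreated controls on a 0–100 scale (0 no effect, 100 complete control).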
# sedge, umbrella = test: Test B flooded paddy test; assay type: in vivo, Cyperus difformis; settings: 500 g ai/ha, Flood; scale of 0 to 100 where 0 is no effect and 100 is complete control
# Summary of the method: as §1
# pigweed = test: Test A pre-/postemergence herbicide test; assay type: in vivo, Amaranthus retroflexus
# Summary of the method: (§3)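 Seeds sown in loam soil/sand blend received a preemergence directed soil spray of test chemical in non-phytotoxic solvent with surfactant; postemergence plants (2–10 cm, one- to two-leaf stage) were sprayed with the same formulation. After about 10 days in greenhouse, injury was rated visually versus untreated controls, 0 (no effect) to 100 (complete control).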
# giant foxtail = test: Test A pre-/postemergence herbicide test; assay type: in vivo, Setaria faberii
# Summary of the method: as §3
# ryegrass, Italian = test: Test A pre-/postemergence herbicide test; assay type: in vivo, Lolium multiflorum
# Summary of the method: as §3
# kochia = test: Test A pre-/postemergence herbicide test; assay type: in vivo, Kochia scoparia
# Summary of the method: as §3
# wheat = test: Test A pre-/postemergence herbicide test; assay type: in vivo, Triticum aestivum; settings: Postemergence
# Summary of the method: as §3
# corn = test: Test A pre-/postemergence herbicide test; assay type: in vivo, Zea mays; settings: Postemergence
# Summary of the method: as §3
# blackgrass = test: Test A postemergence herbicide test; assay type: in vivo, Alopecurus myosuroides
# Summary of the method: as §2
# ducksalad = test: Test B flooded paddy test; assay type: in vivo, Heteranthera limosa; settings: 500 g ai/ha, Flood; scale of 0 to 100 where 0 is no effect and 100 is complete control
# Summary of the method: as §1
# ragweed = test: Test A pre-/postemergence herbicide test; assay type: in vivo, Ambrosia elatior
# Summary of the method: as §3
# barnyardgrass [2] = test: Test A pre-/postemergence herbicide test; assay type: in vivo, Echinochloa crus-galli
# Summary of the method: as §3
# [3] = 125 g ai/ha, 0 to 100 scale, 0 is no effect, 100 is complete control
# [4] = 125 g ai/ha, visual rating, 0 to 100 scale, 0 no effect, 100 complete control, approximately 10 days, preemergence
# [5] = Postemergence, 125 g ai/ha, 0 to 100 scale, 0 is no effect, 100 is complete control
# [6] = preemergence, 500 g ai/ha, 0 to 100 scale, 0 is no effect and 100 is complete control
# [7] = 125 g ai/ha, visual rating on 0 to 100 scale (0 no effect, 100 complete control), approx. 10 days
# [8] = 500 g ai/ha, 0 to 100 scale (0 no effect, 100 complete control)
# [9] = Postemergence, 125 g ai/ha, visual rating on 0 to 100 scale (0 no effect, 100 complete control), approx. 10 days
# [10] = Postemergence, 500 g ai/ha, 0 to 100 scale (0 no effect, 100 complete control)
# [11] = Preemergence, 125 g ai/ha, 0 to 100 scale where 0 is no effect and 100 is complete control
# [12] = Preemergence, 500 g ai/ha, visual rating on 0 to 100 scale (0 no effect, 100 complete control)
compound,measurement,setting,value
CCc1cccc(C2CNC(=O)C2C(=O)Nc2cccc(F)c2F)c1 (racemic) [Compound 170],"Plant response rating, Barnyardgrass",barnyardgrass [1],85
same,"Plant response rating, Rice",rice,15
same,"Plant response rating, Galium",galium; [3],60
same,"Galium plant response rating (0 to 100 scale, 0 is no effect, 100 is complete control)",galium; 500 g ai/ha,60
same,"Plant response rating, Sedge, Umbrella","sedge, umbrella",0
same,"Plant response rating, Pigweed",pigweed; [4],50
same,"Plant response rating, Pigweed",pigweed; [5],20
same,"Pigweed plant response rating (0 to 100 scale, 0 is no effect, 100 is complete control)","pigweed; Postemergence, 500 g ai/ha",30
same,"Plant response rating, Pigweed",pigweed; [6],50
same,"Plant response rating, Foxtail, Giant",giant foxtail; [4],80
same,"Plant response rating, Foxtail, Giant",giant foxtail; [5],60
same,"Foxtail, Giant plant response rating (0 to 100 scale, 0 is no effect, 100 is complete control)","giant foxtail; Postemergence, 500 g ai/ha",90
same,"Plant response rating, Foxtail, Giant","giant foxtail; preemergence, 500 g ai/ha, 0 to 100 scale",90
same,"Plant response rating, Ryegrass, Italian","ryegrass, Italian; [4]",0
same,"Plant response rating, Ryegrass, Italian","ryegrass, Italian; [5]",20
same,"Ryegrass, Italian plant response rating (0 to 100 scale, 0 is no effect, 100 is complete control)","ryegrass, Italian; Postemergence, 500 g ai/ha",60
same,"Plant response rating, Ryegrass, Italian","ryegrass, Italian; [6]",50
same,"Plant response rating, Kochia",kochia; [4],50
same,"Plant response rating, Kochia",kochia; [5],20
same,"Kochia plant response rating (0 to 100 scale, 0 is no effect, 100 is complete control)","kochia; Postemergence, 500 g ai/ha",50
same,"Plant response rating, Kochia",kochia; [6],70
same,"Plant response rating, Wheat",wheat; [3],0
same,"Wheat plant response rating (0 to 100 scale, 0 is no effect, 100 is complete control)",wheat; 500 g ai/ha,60
same,"Plant response rating, Corn",corn; [3],20
same,"Corn plant response rating (0 to 100 scale, 0 is no effect, 100 is complete control)",corn; 500 g ai/ha,70
same,"Plant response rating, Blackgrass",blackgrass; [3],50
same,"Blackgrass plant response rating (0 to 100 scale, 0 is no effect, 100 is complete control)",blackgrass; 500 g ai/ha,60
same,"Plant response rating, Ducksalad",ducksalad,100
same,"Plant response rating, Ragweed",ragweed; [4],0
same,"Plant response rating, Ragweed",ragweed; [5],20
same,"Ragweed plant response rating (0 to 100 scale, 0 is no effect, 100 is complete control)","ragweed; Postemergence, 500 g ai/ha",50
same,"Plant response rating, Ragweed",ragweed; [6],60
same,"Plant response rating, Barnyardgrass",barnyardgrass [2]; [4],90
same,"Plant response rating, Barnyardgrass",barnyardgrass [2]; [5],90
same,"Barnyardgrass plant response rating (0 to 100 scale, 0 is no effect, 100 is complete control)","barnyardgrass [2]; Postemergence, 500 g ai/ha",90
same,"Plant response rating, Barnyardgrass","barnyardgrass [2]; preemergence, 500 g ai/ha, 0 to 100 scale (0 no effect, 100 complete control)",90
CON(C(=O)C1C(=O)NCC1c1ccc(F)c(F)c1)c1cc([N+](=O)[O-])ccc1F (stereo not drawn) [Compound 175],"Plant response rating, Barnyardgrass",barnyardgrass [1],0
same,"Plant response rating, Rice",rice,0
same,"Plant response rating, Galium",galium; [3],0
same,"Galium plant response rating (0 to 100 scale, 0 is no effect, 100 is complete control)",galium; 500 g ai/ha,0
same,"Plant response rating, Sedge, Umbrella","sedge, umbrella",0
same,"Plant response rating, Pigweed",pigweed; [4],0
same,"Plant response rating, Pigweed",pigweed; [5],0
same,"Pigweed plant response rating (0 to 100 scale, 0 is no effect, 100 is complete control)","pigweed; Postemergence, 500 g ai/ha",0
same,"Plant response rating, Pigweed",pigweed; [6],0
same,"Plant response rating, Foxtail, Giant",giant foxtail; [4],0
same,"Plant response rating, Foxtail, Giant",giant foxtail; [5],0
same,"Foxtail, Giant plant response rating (0 to 100 scale, 0 is no effect, 100 is complete control)","giant foxtail; Postemergence, 500 g ai/ha",0
same,"Plant response rating, Foxtail, Giant",giant foxtail; [6],0
same,"Plant response rating, Ryegrass, Italian","ryegrass, Italian; [4]",0
same,"Plant response rating, Ryegrass, Italian","ryegrass, Italian; [5]",0
same,"Ryegrass, Italian plant response rating (0 to 100 scale, 0 is no effect, 100 is complete control)","ryegrass, Italian; Postemergence, 500 g ai/ha",0
same,"Plant response rating, Ryegrass, Italian","ryegrass, Italian; [6]",0
same,"Plant response rating, Kochia",kochia; [4],0
same,"Plant response rating, Kochia",kochia; [5],0
same,"Kochia plant response rating (0 to 100 scale, 0 is no effect, 100 is complete control)","kochia; Postemergence, 500 g ai/ha",0
same,"Plant response rating, Kochia",kochia; [6],0
same,"Plant response rating, Wheat",wheat; [3],0
same,"Wheat plant response rating (0 to 100 scale, 0 is no effect, 100 is complete control)",wheat; 500 g ai/ha,0
same,"Plant response rating, Corn",corn; [3],0
same,"Corn plant response rating (0 to 100 scale, 0 is no effect, 100 is complete control)",corn; 500 g ai/ha,0
same,"Plant response rating, Blackgrass",blackgrass; [3],0
same,"Blackgrass plant response rating (0 to 100 scale, 0 is no effect, 100 is complete control)",blackgrass; 500 g ai/ha,0
same,"Plant response rating, Ducksalad",ducksalad,30
same,"Plant response rating, Ragweed",ragweed; [4],0
same,"Plant response rating, Ragweed",ragweed; [5],0
same,"Ragweed plant response rating (0 to 100 scale, 0 is no effect, 100 is complete control)","ragweed; Postemergence, 500 g ai/ha",0
same,"Plant response rating, Ragweed",ragweed; [6],0
same,"Plant response rating, Barnyardgrass",barnyardgrass [2]; [4],0
same,"Plant response rating, Barnyardgrass",barnyardgrass [2]; [5],0
same,"Barnyardgrass plant response rating (0 to 100 scale, 0 is no effect, 100 is complete control)","barnyardgrass [2]; Postemergence, 500 g ai/ha",0
same,"Plant response rating, Barnyardgrass",barnyardgrass [2]; [6],0
O=C1NCC(c2cccc(Oc3ccccc3)c2)C1C(=O)Nc1ccc(F)c(F)c1F (stereo not drawn) [Compound 333],"Plant response rating, Barnyardgrass",barnyardgrass [1],0
same,"Plant response rating, Rice",rice,0
same,"Plant response rating, Galium",galium; [7],0
same,"Plant response rating, Galium",galium; [8],40
same,"Plant response rating, Sedge, Umbrella","sedge, umbrella",0
same,"Plant response rating, Pigweed",pigweed; [9],0
same,"Plant response rating, Pigweed",pigweed; [10],20
same,"Plant response rating, Pigweed",pigweed; [11],0
same,Pigweed plant response rating,pigweed; [12],0
same,"Plant response rating, Foxtail, Giant",giant foxtail; [9],50
same,"Plant response rating, Foxtail, Giant",giant foxtail; [10],80
same,"Plant response rating, Foxtail, Giant",giant foxtail; [11],80
same,"Foxtail, Giant plant response rating",giant foxtail; [12],90
same,"Plant response rating, Ryegrass, Italian","ryegrass, Italian; [9]",0
same,"Plant response rating, Ryegrass, Italian","ryegrass, Italian; [10]",30
same,"Plant response rating, Ryegrass, Italian","ryegrass, Italian; [11]",0
same,"Ryegrass, Italian plant response rating","ryegrass, Italian; [12]",20
same,"Plant response rating, Kochia",kochia; [9],0
same,"Plant response rating, Kochia",kochia; [10],20
same,"Plant response rating, Kochia",kochia; [11],0
same,Kochia plant response rating,kochia; [12],0
same,"Plant response rating, Wheat",wheat; [7],0
same,"Plant response rating, Wheat",wheat; [8],20
same,"Plant response rating, Corn",corn; [7],0
same,"Plant response rating, Corn",corn; [8],20
same,"Plant response rating, Blackgrass",blackgrass; [7],0
same,"Plant response rating, Blackgrass",blackgrass; [8],30
same,"Plant response rating, Ducksalad",ducksalad,20
same,"Plant response rating, Ragweed",ragweed; [9],0
same,"Plant response rating, Ragweed",ragweed; [10],20
same,"Plant response rating, Ragweed",ragweed; [11],0
same,Ragweed plant response rating,ragweed; [12],0
same,"Plant response rating, Barnyardgrass",barnyardgrass [2]; [9],20
same,"Plant response rating, Barnyardgrass",barnyardgrass [2]; [10],60
same,"Plant response rating, Barnyardgrass",barnyardgrass [2]; [11],50
same,Barnyardgrass plant response rating,barnyardgrass [2]; [12],90
